≈ marks a conversion by molar mass, not a printed value.
Experiments:
Streptococcus pneumoniae [1] = assay: Antibacterial activity against Streptococcus pneumoniae type 3 after 18 hrs by agar dilution method; assay type: functional
Escherichia coli = assay: Antibacterial activity against Escherichia coli NIHJ JC2 after 18 hrs by agar dilution method; assay type: functional; settings: NIHJ JC2, 18 h
Staphylococcus aureus [2] = assay: Antibacterial activity against quinoline-resistant Staphylococcus aureus OITI MR1-1002 isolate after 18 hrs by agar dilution method; assay type: functional
Enterococcus faecalis [3] = assay: Antibacterial activity against Enterococcus faecalis IID682 after 18 hrs by agar dilution method; assay type: functional
Streptococcus pyogenes = assay: Antibacterial activity against Streptococcus pyogenes IID692 after 18 hrs by agar dilution method; assay type: functional
Streptococcus pneumoniae [4] = assay: Antibacterial activity against quinoline-resistant Streptococcus pneumoniae no.55 isolate after 18 hrs by agar dilution method; assay type: functional
Enterococcus faecalis [5] = assay: Antibacterial activity against vancomycin-resistant Enterococcus faecalis KU1866 after 18 hrs by agar dilution method; assay type: functional
Pseudomonas aeruginosa = assay: Antibacterial activity against Pseudomonas aeruginosa IID1210 after 18 hrs by agar dilution method; assay type: functional
Enterococcus faecalis [6] = assay: Antibacterial activity against vancomycin-resistant Enterococcus faecalis KU1856 after 18 hrs by agar dilution method; assay type: functional
Enterococcus faecalis [7] = assay: Antibacterial activity against quinoline-resistant Enterococcus faecalis No.15 isolate after 18 hrs by agar dilution method; assay type: functional
Staphylococcus aureus [8] = assay: Antibacterial activity against Staphylococcus aureus Smith after 18 hrs by agar dilution method; assay type: functional
Haemophilus influenzae = assay: Antibacterial activity against Haemophilus influenzae IID983 after 18 hrs by agar dilution method; assay type: functional
Klebsiella pneumoniae = assay: Antibacterial activity against Klebsiella pneumoniae IID5209 after 18 hrs by agar dilution method; assay type: functional
Mus musculus [9] = assay: Toxicity in ICR mouse assessed as mortality administered as single dose at 200 mg/kg, iv after 7 days; assay type: organism-based; set-up: dose 200 mg/kg, route intravenous; settings: in vivo, 168 h
Mus musculus [10] = assay: Toxicity in intracerebroventricularly dosed ICR mouse assessed as induction of convulsion after 2 hrs in presence of fenbufen; assay type: organism-based; settings: in vivo, icv_or_intrathecal
Mus musculus [11] = assay: Toxicity in ICR mouse assessed as mortality administered as single dose at 100 mg/kg, iv after 7 days; assay type: organism-based; set-up: dose 100 mg/kg, route intravenous; settings: in vivo, 168 h
Mus musculus [12] = assay: Toxicity in intracerebroventricularly dosed ICR mouse assessed as induction of convulsion after 2 hrs in absence of fenbufen; assay type: organism-based; settings: in vivo, icv_or_intrathecal
Mus musculus [13] = assay: Phototoxicity in orally dosed ICR mouse assessed as skin erythema after 72 hrs; assay type: organism-based; settings: in vivo, po
Staphylococcus aureus [14] = assay: Antibacterial activity against quinoline-resistant Staphylococcus aureus MS5935 containing single grlA and single gyrA mutation after 18 hrs by agar dilution method; assay type: functional
Staphylococcus aureus [15] = assay: Antibacterial activity against Staphylococcus aureus Smith infected in subcutaneously dosed ICR mouse administered 1 hr after bacterial challenge measured at 7 days post infection; assay type: functional; settings: sc
Streptococcus pneumoniae [16] = assay: Antibacterial activity against Streptococcus pneumoniae type 3 infected in po dosed ICR mouse administered 1 hr after bacterial challenge measured at 7 days post infection; assay type: functional
Staphylococcus aureus [17] = assay: Antibacterial activity against quinoline-resistant Staphylococcus aureus MS5935 containing double grlA and single gyrA mutation after 18 hrs by agar dilution method; assay type: functional
Staphylococcus aureus [18] = assay: Antibacterial activity against Staphylococcus aureus Smith infected in po dosed ICR mouse administered 1 hr after bacterial challenge measured at 7 days post infection; assay type: functional
[19] = Inhibition of quinoline-resistant Staphylococcus aureus MS5935 topoisomerase 4-mediated decatenation activity
Staphylococcus aureus [20] = assay: Antibacterial activity against quinoline-resistant wild type Staphylococcus aureus MS5935 after 18 hrs by agar dilution method; assay type: functional
DNA gyrase [21] = target: T1, DNA gyrase (Staphylococcus aureus, UniProt P0A0K8+P20831); assay: Inhibition of quinoline-resistant Staphylococcus aureus MS5935 DNA gyrase-mediated supercoiling activity; assay type: protein-complex assay
T1 sequence (P0A0K8 whole entry): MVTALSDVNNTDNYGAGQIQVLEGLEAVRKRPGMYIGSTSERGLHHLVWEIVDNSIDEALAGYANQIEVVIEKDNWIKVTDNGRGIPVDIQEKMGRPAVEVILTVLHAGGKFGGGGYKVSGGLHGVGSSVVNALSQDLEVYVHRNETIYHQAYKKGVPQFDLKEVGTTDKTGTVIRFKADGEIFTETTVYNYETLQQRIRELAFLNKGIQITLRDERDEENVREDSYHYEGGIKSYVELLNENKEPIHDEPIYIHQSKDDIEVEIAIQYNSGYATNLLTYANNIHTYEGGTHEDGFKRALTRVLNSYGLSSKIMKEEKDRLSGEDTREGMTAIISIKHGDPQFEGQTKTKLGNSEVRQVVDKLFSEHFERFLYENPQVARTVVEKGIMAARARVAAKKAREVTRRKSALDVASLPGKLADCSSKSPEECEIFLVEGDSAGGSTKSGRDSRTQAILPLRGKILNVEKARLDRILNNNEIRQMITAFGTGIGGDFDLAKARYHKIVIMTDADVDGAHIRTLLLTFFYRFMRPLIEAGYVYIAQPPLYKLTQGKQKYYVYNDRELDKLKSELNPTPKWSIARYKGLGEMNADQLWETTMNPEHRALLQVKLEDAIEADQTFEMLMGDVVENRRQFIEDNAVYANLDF
T1 sequence (P20831 whole entry): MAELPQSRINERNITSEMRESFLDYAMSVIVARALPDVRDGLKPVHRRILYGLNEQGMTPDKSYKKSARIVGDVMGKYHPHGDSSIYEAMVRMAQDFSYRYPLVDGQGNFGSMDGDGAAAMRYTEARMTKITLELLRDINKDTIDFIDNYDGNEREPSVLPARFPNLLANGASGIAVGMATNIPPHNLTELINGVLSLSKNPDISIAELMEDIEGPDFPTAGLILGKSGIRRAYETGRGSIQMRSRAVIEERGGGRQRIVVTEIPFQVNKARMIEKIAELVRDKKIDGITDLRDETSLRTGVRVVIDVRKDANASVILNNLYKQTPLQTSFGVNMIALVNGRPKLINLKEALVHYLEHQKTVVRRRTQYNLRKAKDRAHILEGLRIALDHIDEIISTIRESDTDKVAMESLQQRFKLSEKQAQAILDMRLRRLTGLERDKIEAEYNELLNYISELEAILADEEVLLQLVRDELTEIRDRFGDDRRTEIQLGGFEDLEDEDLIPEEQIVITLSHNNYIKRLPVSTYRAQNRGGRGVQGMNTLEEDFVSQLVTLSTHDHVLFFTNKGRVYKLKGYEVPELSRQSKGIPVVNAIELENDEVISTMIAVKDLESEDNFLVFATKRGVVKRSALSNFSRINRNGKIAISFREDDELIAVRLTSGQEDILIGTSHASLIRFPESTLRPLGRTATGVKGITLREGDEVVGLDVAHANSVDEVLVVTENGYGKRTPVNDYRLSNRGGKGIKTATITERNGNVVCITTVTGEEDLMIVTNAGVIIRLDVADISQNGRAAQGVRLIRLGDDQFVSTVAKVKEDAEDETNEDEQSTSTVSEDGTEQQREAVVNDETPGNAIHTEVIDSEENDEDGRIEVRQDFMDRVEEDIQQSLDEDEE

DNA gyrase [22] = target: T1, DNA gyrase; assay: Inhibition of Staphylococcus aureus MS5935 wild type DNA gyrase-mediated supercoiling activity; assay type: protein-complex assay
Staphylococcus aureus [23] = assay: Antibacterial activity against quinoline-resistant Staphylococcus aureus MS5935 containing single grlA mutation after 18 hrs by agar dilution method; assay type: functional
Staphylococcus aureus [24] = assay: Antibacterial activity against quinoline-resistant Staphylococcus aureus MS5935 containing double grlA and double gyrA mutation after 18 hrs by agar dilution method; assay type: functional
Streptococcus pneumoniae [25] = assay: Antibacterial activity against Streptococcus pneumoniae type 3 infected in subcutaneously dosed ICR mouse administered 1 hr after bacterial challenge measured at 7 days post infection; assay type: functional; settings: sc
[26] = Inhibition of Staphylococcus aureus MS5935 wild type topoisomerase 4-mediated decatenation activity

SMILES | MIC (Streptococcus pneumoniae [1]) [µg/mL] | MIC (Escherichia coli) [µg/mL] | MIC (Staphylococcus aureus [2]) [µg/mL] | MIC (Enterococcus faecalis [3]) [µg/mL] | MIC (Streptococcus pyogenes) [µg/mL] | MIC (Streptococcus pneumoniae [4]) [µg/mL] | MIC (Enterococcus faecalis [5]) [µg/mL] | MIC (Pseudomonas aeruginosa) [µg/mL] | MIC (Enterococcus faecalis [6]) [µg/mL] | MIC (Enterococcus faecalis [7]) [µg/mL] | MIC (Staphylococcus aureus [8]) [µg/mL] | MIC (Haemophilus influenzae) [ng/mL] | MIC (Klebsiella pneumoniae) [µg/mL] | Activity (Mus musculus [9]) | Activity (Mus musculus [10]) [µg] | Activity (Mus musculus [12]) [µg] | further results
C[C@H]1COc2c(N3C[C@H](CNC4CC4)[C@@H](F)C3)c(F)cc3c(=O)c(C(=O)O)cn1c23 | 0.063 (≈ 0.15 µM) | 0.016 (≈ 0.0381 µM) | 16 (≈ 38.1 µM) | 0.125 (≈ 0.298 µM) | 0.125 (≈ 0.298 µM) | 2 (≈ 4.77 µM) | 4 (≈ 9.54 µM) | 4 (≈ 9.54 µM) | 2 (≈ 4.77 µM) | 4 (≈ 9.54 µM) | 0.016 (≈ 0.0381 µM) | 8 (≈ 0.0191 µM) | 0.125 (≈ 0.298 µM) | – | – | – | –
C[C@H]1CN(c2c(F)cc3c(=O)c(C(=O)O)cn4c3c2OC[C@@H]4C)C[C@@H]1CNC1CC1 | 0.016 (≈ 0.0385 µM) | 0.016 (≈ 0.0385 µM) | 2 (≈ 4.81 µM) | 0.031 (≈ 0.0746 µM) | 0.016 (≈ 0.0385 µM) | 0.5 (≈ 1.2 µM) | 1 (≈ 2.41 µM) | 4 (≈ 9.63 µM) | 1 (≈ 2.41 µM) | 1 (≈ 2.41 µM) | 0.002 (≈ 0.00481 µM) | 8 (≈ 0.0193 µM) | 0.125 (≈ 0.301 µM) | Toxic | > 40 | > 40 | Activity (Mus musculus [11]): Non-toxic
O=C(O)c1cn2c3c(c(N4C[C@H](CNC5CC5)[C@@H](F)C4)c(F)cc3c1=O)OC[C@@H]2CF | 0.063 (≈ 0.144 µM) | 0.031 (≈ 0.0709 µM) | 16 (≈ 36.6 µM) | 0.125 (≈ 0.286 µM) | 0.125 (≈ 0.286 µM) | 2 (≈ 4.57 µM) | 4 (≈ 9.14 µM) | 4 (≈ 9.14 µM) | 2 (≈ 4.57 µM) | 4 (≈ 9.14 µM) | 0.016 (≈ 0.0366 µM) | 8 (≈ 0.0183 µM) | 0.125 (≈ 0.286 µM) | – | – | – | –
C[C@@H]1CN(c2c(F)cc3c(=O)c(C(=O)O)cn4c3c2OC[C@@H]4CF)C[C@@H]1CNC1CC1 | 0.016 (≈ 0.0369 µM) | 0.016 (≈ 0.0369 µM) | 0.5 (≈ 1.15 µM) | 0.063 (≈ 0.145 µM) | 0.031 (≈ 0.0715 µM) | 0.125 (≈ 0.288 µM) | 1 (≈ 2.31 µM) | 2 (≈ 4.61 µM) | 1 (≈ 2.31 µM) | 1 (≈ 2.31 µM) | 0.008 (≈ 0.0185 µM) | 4 (≈ 0.00923 µM) | 0.063 (≈ 0.145 µM) | Toxic | 10 | 20 | Activity (Mus musculus [13]): Non-toxic
O=C(O)c1cn(C2CC2)c2cc(N3CCNCC3)c(F)cc2c1=O [CIPROFLOXACIN] | – | ≤ 0.001 | 64 (≈ 193 µM) | 0.5 (≈ 1.51 µM) | 0.5 (≈ 1.51 µM) | 64 (≈ 193 µM) | 64 (≈ 193 µM) | – | 64 (≈ 193 µM) | 64 (≈ 193 µM) | 0.25 (≈ 0.754 µM) | 8 (≈ 0.0241 µM) | 0.004 (≈ 0.0121 µM) | – | – | – | –
NC1CCN(c2c(F)cc3c(=O)c(C(=O)O)cn(C4CC4)c3c2Cl)C1 (stereo not given) [CLINAFLOXACIN] | 0.031 (≈ 0.0847 µM) | 0.002 (≈ 0.00547 µM) | 8 (≈ 21.9 µM) | 0.063 (≈ 0.172 µM) | 0.063 (≈ 0.172 µM) | 0.5 (≈ 1.37 µM) | 4 (≈ 10.9 µM) | 0.125 (≈ 0.342 µM) | 2 (≈ 5.47 µM) | 8 (≈ 21.9 µM) | 0.016 (≈ 0.0437 µM) | ≤ 1 | 0.004 (≈ 0.0109 µM) | Non-toxic | 5 | 10 | Activity (Mus musculus [13]): Toxic; MIC (Staphylococcus aureus [14]): 0.5 µg/mL (≈ 1.37 µM); ED50 (Staphylococcus aureus [15]): 0.35 mg/kg; ED50 (Streptococcus pneumoniae [16]): 15 mg/kg; MIC (Staphylococcus aureus [17]): 2 µg/mL (≈ 5.47 µM); ED50 (Staphylococcus aureus [18]): 2.1 mg/kg; Activity (Mus musculus [11]): Non-toxic; IC50 [19]: 13.9 µg/mL (≈ 38 µM); MIC (Staphylococcus aureus [20]): 0.016 µg/mL (≈ 0.0437 µM); IC50 (DNA gyrase [21]): 44.3 µM; IC50 (DNA gyrase [22]): 3.14 µM; MIC (Staphylococcus aureus [23]): 0.063 µg/mL (≈ 0.172 µM); MIC (Staphylococcus aureus [24]): 8 µg/mL (≈ 21.9 µM); ED50 (Streptococcus pneumoniae [25]): 45 mg/kg; IC50 [26]: 1.89 µg/mL (≈ 5.17 µM)
C[C@H]1COc2c(N3CCN(C)CC3)c(F)cc3c(=O)c(C(=O)O)cn1c23.C[C@H]1COc2c(N3CCN(C)CC3)c(F)cc3c(=O)c(C(=O)O)cn1c23.O [LEVOFLOXACIN] | – | ≤ 0.001 | > 128 | 1 | 0.5 | – | 32 | 0.5 | 32 | 64 | 0.125 | 8 | 0.016 | – | – | – | MIC (Staphylococcus aureus [14]): 8 µg/mL; MIC (Staphylococcus aureus [17]): 32 µg/mL; IC50 [19]: 319 µg/mL; MIC (Staphylococcus aureus [20]): 0.125 µg/mL; MIC (Staphylococcus aureus [23]): 0.5 µg/mL; MIC (Staphylococcus aureus [24]): > 128 µg/mL; IC50 [26]: 5.44 µg/mL

Source: ChEMBL document CHEMBL1150336, “Synthesis and antibacterial activity of novel pyrido[1,2,3-de][1,4]benzoxazine-6-carboxylic acid derivatives carrying the 3-cyclopropylaminomethyl-4-substituted-1-pyrrolidinyl group as a C-10 substituent” (J Med Chem, 2008)
